US20050014754A1, “Fused pyrrole compounds” (priority 2003, published 2005)

Legend:
[1] = system: TNFα; test: In-vitro assay measuring TNFα inhibition (LPS-stimulated human PBMC, ELISA); assay type: cell-based; conditions: human PBMC stimulated with LPS 1 μg/mL, supernatant after 18 h, read-out: IC50, inhibition of TNFα production
Protocol: Reagents. Lipopolysaccharide (LPS, Serratia marscencens) was obtained from Sigma (St. Louis, Mo.). RPMI-1640 medium and fetal calf serum (FCS) were purchased from the ATCC (Manassas, Va.).
Assay. Human peripheral blood cells (PBMC) were isolated by centrifugation using Ficoll-Paque (Pharmacia Biotech, Uppsala, Sweden) and suspended in RPMI-1640 medium supplemented with 10% FCS, 100 U/mL penicillin, and 100 μg/mL streptomycin. The cells were then plated in the wells of a 96-well plate at a concentration of 5×10^5 cells/well, and stimulated by adding LPS (1 μg/mL). Each test compound was dissolved in DMSO and added to the wells. The final DMSO concentration was adjusted to 0.25% in all cultures, including the compound-free control, and the concentrations of each test compound ranged from 0 to 10 μM. Cell-free supernatants were taken 18 h later for measurement of cytokines. Cell viability was assessed using the bioreduction of MTS [3-(4,5-dimethylthiazol-2-yl)-5-(3-carboxymethoxyphenyl)-2-(4-sulophenyl)-2H-tetrazolium] after 18 h and 48 h. Cell survival was estimated by determining the ratio of the absorbance in each of the compound-treated cultures to that in the compound-free control.
The supernatant was assayed for the amount of TNFα by using an ELISA assay with anti-human TNFa antibodies (Cell Sciences, Norwood, Mass.). The assay was carried out following the manufacturer's instructions.

[2] = system: PDE4; test: In-vitro assay measuring PDE4 inhibition (PDE4 from U937 human monocytic cells, [3H]-cAMP SPA); assay type: biochemical; conditions: 23 nM [3H]-cAMP, 37° C., 30 min
Protocol: PDE4 was prepared from U937 human monocytic cells according to the method of Tenor et al. (Clin Exp Allegy (1995) 25:625-633). Briefly, U937 cells were homogenized in a mixture of pH 7.4 containing 10 mM Hepes, 1 mM b-mercaptoethanol, 1 mM MgCl2, 1 mM EGTA, 137 mM NaCl, 2.7 mM KCl, 1.5 mM KH2PO4, 8.1 mM Na2HPO4, 5 μM pepstain A, 10 μM leupeptin, 50 μM PMSF, 10 μM soybean trypsin inhibitor, and 2 mM benzamindine. The homogenate was centrifuged at 200,000×g for 30 min. PDE4 activity in the supernatant was assayed in a 200 μl reaction containing 40 mM Tris-HCl, pH 7.5, 23 nM [^3H]-adenosine 3′,5′ cyclic monophosphate (cAMP), 8.3 mM MgCl2, 1.7 mM EGTA, 0.25% DMSO, and a testing compound. The assay mixture was incubated at 37° C. for 30 min and the reaction was terminated by the addition of 100 μl of yttrium silicate SPA beads (Amersham Pharmacia Biotech, Piscataway, N.J.) suspended in 18 mM ZnSO4. The assay mixture was rotated for 3 min to ensure the binding of [^3H]-5′adenosine monophosphate to the beads. Finally, the beads was spun down, washed twice with 6 mM ZnSO4, resuspended in 100 μl of 0.1 N NaOH, and then counted for radioactivity in a liquid scintillation counter.

[3] = system: MDA435 (human breast cancer); test: In-vitro assay measuring anti-cancer activity (MTS assay); assay type: cell-based; conditions: MDA435 cells, 72 hours incubation, read-out: IC50, concentration required to inhibit 50% tumor cell growth
Protocol: In vitro anti-cancer activity was determined in human cancer cell line MDA435 (human breast cancer), obtained from ATCC (American Type of Culture Collection).
The cell line was maintained in RPMI1640(GIBCO) supplemented with 10% FCS, 100 units/ml penicillin, 100 ug/ml streptomycin, and 2 mM L-glutamine. The cells were split every third day and diluted to a concentration of 2×10^5 cells/ml one day before experiment. The experiment was performed on exponentially growing cell culture. Cell densities were 2.5×10^4 cells/ml in this experiment.
A stock solution of Compound (I-4) was prepared by dissolving the compound at a concentration of 1 mM in 100% DMSO. Final concentrations were obtained by diluting the stock solution directly into the tissue culture medium. Cells were incubated with varying concentrations of the compound for 72 hours and the IC50 was determined by MTS (i.e. 3-(4.5.-dimethylthiazol-2-yl)-2.5-diphenyl tetrazolium bromide) assay. In this experiment, IC50 stands for the concentration of compound required to inhibit 50% tumor cell growth. Compound (I-4) provided an IC50 value of about 1 μM.

SMILES	IC50 [1] [nM]	IC50 [2] [nM]	IC50 [3] [nM]
O=C(Nc1c(Cl)c[n+]([O-])cc1Cl)C(=O)c1cc(Cc2ccc(F)cc2)n2ncccc12 [Compound I-4, N-(3,5-Dichloro-1-oxy-pyridin-4-yl)-2-[7-(4-fluoro-benzyl)-pyrrolo[1,2-b]pyridazin-5-yl]-2-oxo-acetamide]	~50	~5	~1000
Cc1cc(NC(=O)C(=O)c2cc(Cc3ccc(C#N)cc3)n3ccsc23)sn1 [Compound I-10, 2-[5-(4-Cyano-benzyl)-pyrrolo[2,1-b]thiazol-7-yl]-N-(3-methyl-isothiazol-5-yl)-2-oxo-acetamide]	~1000	–	–
